# Assay results reported in the NIST ThermoML archive (doi:10.1016/j.fluid.2009.08.017).
# ± gives the expanded uncertainty stated by the source.
# Assay: activity coefficient (dimensionless); of the first substance listed, at infinite dilution; xn = mol fraction of the nth substance listed
# Details: 101 kPa, Liquid, Chromatography, x1 = 0
Structure (SMILES),activity coefficient (298.15 K),activity coefficient (308.15 K),activity coefficient (318.15 K),activity coefficient (328.15 K),activity coefficient (338.15 K),activity coefficient (348.15 K),activity coefficient (358.15 K),activity coefficient (368.15 K)
CCCCCC [hexane] + CCCCCCOCn1cc[n+](COCCCCCC)c1.O=S(=O)([N-]S(=O)(=O)C(F)(F)F)C(F)(F)F,3.22 ± 0.22,3.13 ± 0.21,3.04 ± 0.21,2.97 ± 0.2,2.9 ± 0.2,2.83 ± 0.19,2.77 ± 0.19,2.72 ± 0.19
c1ccsc1 [thiophene] + CCCCCCOCn1cc[n+](C)c1.O=S(=O)([N-]S(=O)(=O)C(F)(F)F)C(F)(F)F,0.743 ± 0.049,0.744 ± 0.049,0.744 ± 0.049,0.745 ± 0.049,0.746 ± 0.049,0.746 ± 0.049,0.747 ± 0.049,0.747 ± 0.049
C1CCOC1 [tetrahydrofuran] + CCCCCCOCn1cc[n+](COCCCCCC)c1.O=S(=O)([N-]S(=O)(=O)C(F)(F)F)C(F)(F)F,0.294 ± 0.031,0.304 ± 0.031,0.314 ± 0.031,0.324 ± 0.032,0.333 ± 0.032,0.343 ± 0.032,0.352 ± 0.032,0.36 ± 0.033
CCCCCCCCCC [decane] + CCCCCCOCn1cc[n+](COCCCCCC)c1.O=S(=O)([N-]S(=O)(=O)C(F)(F)F)C(F)(F)F,7.38 ± 0.5,7 ± 0.48,6.66 ± 0.45,6.38 ± 0.43,6.11 ± 0.42,5.87 ± 0.4,5.65 ± 0.39,5.46 ± 0.37
CO [methanol] + CCCCCCOCn1cc[n+](COCCCCCC)c1.O=S(=O)([N-]S(=O)(=O)C(F)(F)F)C(F)(F)F,1.17 ± 0.07,1.06 ± 0.067,0.978 ± 0.061,0.9 ± 0.057,0.834 ± 0.054,0.776 ± 0.051,0.725 ± 0.048,0.681 ± 0.046
COC(C)(C)C [2-methoxy-2-methylpropane] + CCCCCCOCn1cc[n+](COCCCCCC)c1.O=S(=O)([N-]S(=O)(=O)C(F)(F)F)C(F)(F)F,0.759 ± 0.05,0.78 ± 0.051,0.801 ± 0.052,0.821 ± 0.053,0.841 ± 0.054,0.859 ± 0.055,0.877 ± 0.056,0.896 ± 0.057
C1CCCCCCC1 [cyclooctane] + CCCCCCOCn1cc[n+](COCCCCCC)c1.O=S(=O)([N-]S(=O)(=O)C(F)(F)F)C(F)(F)F,3.2 ± 0.22,3.06 ± 0.21,2.94 ± 0.2,2.82 ± 0.19,2.72 ± 0.19,2.63 ± 0.18,2.54 ± 0.17,2.47 ± 0.17
C=CCCCCCC [oct-1-ene] + CCCCCCOCn1cc[n+](COCCCCCC)c1.O=S(=O)([N-]S(=O)(=O)C(F)(F)F)C(F)(F)F,3.28 ± 0.22,3.2 ± 0.22,3.12 ± 0.21,3.05 ± 0.21,2.99 ± 0.2,2.93 ± 0.2,2.87 ± 0.2,2.83 ± 0.19
"Cc1ccc(C)cc1 [1,4-dimethylbenzene] + CCCCCCOCn1cc[n+](C)c1.O=S(=O)([N-]S(=O)(=O)C(F)(F)F)C(F)(F)F",–,–,1.46 ± 0.096,1.47 ± 0.097,1.48 ± 0.097,1.49 ± 0.098,1.5 ± 0.098,1.5 ± 0.099
c1ccsc1 [thiophene] + CCCCCCOCn1cc[n+](COCCCCCC)c1.O=S(=O)([N-]S(=O)(=O)C(F)(F)F)C(F)(F)F,0.578 ± 0.041,0.575 ± 0.041,0.571 ± 0.041,0.568 ± 0.041,0.565 ± 0.041,0.562 ± 0.04,0.559 ± 0.04,0.557 ± 0.04
CCCCCCCCCC [decane] + CCCCCCOCn1cc[n+](C)c1.O=S(=O)([N-]S(=O)(=O)C(F)(F)F)C(F)(F)F,23.5 ± 1.6,21.7 ± 1.5,20.2 ± 1.4,18.9 ± 1.3,17.7 ± 1.2,16.7 ± 1.1,15.8 ± 1.1,14.9 ± 1
C=CCCC [1-pentene] + CCCCCCOCn1cc[n+](C)c1.O=S(=O)([N-]S(=O)(=O)C(F)(F)F)C(F)(F)F,3.96 ± 0.27,3.86 ± 0.26,3.77 ± 0.26,3.69 ± 0.25,3.61 ± 0.25,3.53 ± 0.24,3.47 ± 0.24,3.41 ± 0.23
Cc1ccccc1 [toluene] + CCCCCCOCn1cc[n+](COCCCCCC)c1.O=S(=O)([N-]S(=O)(=O)C(F)(F)F)C(F)(F)F,–,0.743 ± 0.049,0.746 ± 0.049,0.749 ± 0.049,0.753 ± 0.05,0.756 ± 0.05,0.758 ± 0.05,0.761 ± 0.05
CCCCO [butan-1-ol] + CCCCCCOCn1cc[n+](COCCCCCC)c1.O=S(=O)([N-]S(=O)(=O)C(F)(F)F)C(F)(F)F,–,–,1.19 ± 0.08,1.1 ± 0.07,1.01 ± 0.064,0.943 ± 0.059,0.877 ± 0.056,0.82 ± 0.053
"Cc1ccccc1C [1,2-dimethylbenzene] + CCCCCCOCn1cc[n+](C)c1.O=S(=O)([N-]S(=O)(=O)C(F)(F)F)C(F)(F)F",–,–,1.33 ± 0.086,1.34 ± 0.087,1.35 ± 0.087,1.35 ± 0.088,1.36 ± 0.088,1.36 ± 0.089
CCCCCCCC [octane] + CCCCCCOCn1cc[n+](C)c1.O=S(=O)([N-]S(=O)(=O)C(F)(F)F)C(F)(F)F,13.6 ± 0.9,12.8 ± 0.9,12.1 ± 0.8,11.5 ± 0.8,10.9 ± 0.7,10.4 ± 0.7,10 ± 0.7,9.51 ± 0.65
CCCOCCC [dipropyl ether] + CCCCCCOCn1cc[n+](COCCCCCC)c1.O=S(=O)([N-]S(=O)(=O)C(F)(F)F)C(F)(F)F,1.49 ± 0.098,1.49 ± 0.098,1.49 ± 0.098,1.5 ± 0.098,1.5 ± 0.099,1.5 ± 0.099,1.5 ± 0.099,1.5 ± 0.099
O [water] + CCCCCCOCn1cc[n+](C)c1.O=S(=O)([N-]S(=O)(=O)C(F)(F)F)C(F)(F)F,4.37 ± 0.3,3.81 ± 0.26,3.32 ± 0.23,2.9 ± 0.2,2.57 ± 0.17,2.28 ± 0.16,2.04 ± 0.14,–
CC(C)=O [acetone] + CCCCCCOCn1cc[n+](C)c1.O=S(=O)([N-]S(=O)(=O)C(F)(F)F)C(F)(F)F,0.3 ± 0.031,0.308 ± 0.031,0.315 ± 0.031,0.322 ± 0.031,0.328 ± 0.032,0.336 ± 0.032,0.342 ± 0.032,0.348 ± 0.032
CCCCCC [hexane] + CCCCCCOCn1cc[n+](C)c1.O=S(=O)([N-]S(=O)(=O)C(F)(F)F)C(F)(F)F,8.36 ± 0.57,7.96 ± 0.54,7.59 ± 0.52,7.27 ± 0.5,6.98 ± 0.48,6.71 ± 0.46,6.46 ± 0.44,6.24 ± 0.43
CCCCCCCC [octane] + CCCCCCOCn1cc[n+](COCCCCCC)c1.O=S(=O)([N-]S(=O)(=O)C(F)(F)F)C(F)(F)F,4.8 ± 0.33,4.62 ± 0.31,4.45 ± 0.3,4.3 ± 0.29,4.16 ± 0.28,4.03 ± 0.27,3.92 ± 0.27,3.81 ± 0.26
c1ccccc1 [benzene] + CCCCCCOCn1cc[n+](COCCCCCC)c1.O=S(=O)([N-]S(=O)(=O)C(F)(F)F)C(F)(F)F,0.608 ± 0.043,0.608 ± 0.043,0.607 ± 0.042,0.607 ± 0.042,0.606 ± 0.042,0.606 ± 0.042,0.606 ± 0.042,0.606 ± 0.042
C=CCCC [1-pentene] + CCCCCCOCn1cc[n+](COCCCCCC)c1.O=S(=O)([N-]S(=O)(=O)C(F)(F)F)C(F)(F)F,1.9 ± 0.13,1.87 ± 0.13,1.83 ± 0.12,1.8 ± 0.12,1.77 ± 0.12,1.75 ± 0.12,1.72 ± 0.12,1.7 ± 0.11
CCCCCCCCC [nonane] + CCCCCCOCn1cc[n+](C)c1.O=S(=O)([N-]S(=O)(=O)C(F)(F)F)C(F)(F)F,17.8 ± 1.2,16.6 ± 1.1,15.5 ± 1.1,14.6 ± 1,13.8 ± 0.9,13.2 ± 0.9,12.4 ± 0.8,11.9 ± 0.8
CCO [ethanol] + CCCCCCOCn1cc[n+](COCCCCCC)c1.O=S(=O)([N-]S(=O)(=O)C(F)(F)F)C(F)(F)F,1.25 ± 0.08,1.14 ± 0.07,1.04 ± 0.065,0.958 ± 0.06,0.886 ± 0.056,0.824 ± 0.053,0.767 ± 0.05,0.719 ± 0.048
CCOCC [diethyl ether] + CCCCCCOCn1cc[n+](COCCCCCC)c1.O=S(=O)([N-]S(=O)(=O)C(F)(F)F)C(F)(F)F,0.811 ± 0.052,0.826 ± 0.053,0.839 ± 0.054,0.854 ± 0.055,0.867 ± 0.055,0.879 ± 0.056,0.89 ± 0.057,0.904 ± 0.057
